Values quoted from earlier work in patent publication US9463243B2, “Amorphous medicinal fine particles produced by pulsed laser ablation in liquid and the production method thereof” (IMRA AMERICA, INC., priority 2012, dated 2016).

- water solubility: water-insoluble
SMILES: COc1cc(/C=C/C(=O)CC(=O)/C=C/c2ccc(O)c(OC)c2)ccc1O [Curcumin, curcumin]
